The text below walks through data of ChEMBL document CHEMBL5465560, “Selectivity Literature for EUbOPEN Chemogenomic Library” (2024).

The target in experiment [1] is T1, Activin receptor type-1B (Homo sapiens) (UniProt P36896).
T1 sequence (whole entry): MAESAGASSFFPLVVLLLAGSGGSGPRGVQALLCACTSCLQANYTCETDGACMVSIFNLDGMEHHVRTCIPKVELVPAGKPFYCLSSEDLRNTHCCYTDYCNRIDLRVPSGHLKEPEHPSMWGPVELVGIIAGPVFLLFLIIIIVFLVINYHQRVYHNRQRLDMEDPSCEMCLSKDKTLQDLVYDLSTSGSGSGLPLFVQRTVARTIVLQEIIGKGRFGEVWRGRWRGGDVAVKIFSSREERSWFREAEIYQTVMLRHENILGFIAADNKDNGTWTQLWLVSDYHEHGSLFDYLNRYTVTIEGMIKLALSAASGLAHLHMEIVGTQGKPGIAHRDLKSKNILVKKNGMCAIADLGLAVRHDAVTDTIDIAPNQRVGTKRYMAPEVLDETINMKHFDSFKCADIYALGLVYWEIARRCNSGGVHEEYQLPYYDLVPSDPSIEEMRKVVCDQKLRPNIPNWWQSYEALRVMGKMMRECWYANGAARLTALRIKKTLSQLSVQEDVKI
The experiment can be described thus: Selectivity interaction (KinomeScan (DiscoverX)) EUB0001079a ACVR1B. The following applies: at 1 µM.

In experiment [2] the target is Voltage-dependent L-type calcium channel subunit alpha-1S (Homo sapiens) (UniProt Q13698). The experiment can be described thus: Selectivity interaction (Eurofins CEREP Diversity Profile (receptors and ion channels)) EUB0000279b CACNA1S. As to conditions: at 10 µM.
The target in experiment [3] is T2, Histone-lysine N-methyltransferase NSD3 (Homo sapiens) (UniProt Q9BZ95).
T2 sequence (whole entry): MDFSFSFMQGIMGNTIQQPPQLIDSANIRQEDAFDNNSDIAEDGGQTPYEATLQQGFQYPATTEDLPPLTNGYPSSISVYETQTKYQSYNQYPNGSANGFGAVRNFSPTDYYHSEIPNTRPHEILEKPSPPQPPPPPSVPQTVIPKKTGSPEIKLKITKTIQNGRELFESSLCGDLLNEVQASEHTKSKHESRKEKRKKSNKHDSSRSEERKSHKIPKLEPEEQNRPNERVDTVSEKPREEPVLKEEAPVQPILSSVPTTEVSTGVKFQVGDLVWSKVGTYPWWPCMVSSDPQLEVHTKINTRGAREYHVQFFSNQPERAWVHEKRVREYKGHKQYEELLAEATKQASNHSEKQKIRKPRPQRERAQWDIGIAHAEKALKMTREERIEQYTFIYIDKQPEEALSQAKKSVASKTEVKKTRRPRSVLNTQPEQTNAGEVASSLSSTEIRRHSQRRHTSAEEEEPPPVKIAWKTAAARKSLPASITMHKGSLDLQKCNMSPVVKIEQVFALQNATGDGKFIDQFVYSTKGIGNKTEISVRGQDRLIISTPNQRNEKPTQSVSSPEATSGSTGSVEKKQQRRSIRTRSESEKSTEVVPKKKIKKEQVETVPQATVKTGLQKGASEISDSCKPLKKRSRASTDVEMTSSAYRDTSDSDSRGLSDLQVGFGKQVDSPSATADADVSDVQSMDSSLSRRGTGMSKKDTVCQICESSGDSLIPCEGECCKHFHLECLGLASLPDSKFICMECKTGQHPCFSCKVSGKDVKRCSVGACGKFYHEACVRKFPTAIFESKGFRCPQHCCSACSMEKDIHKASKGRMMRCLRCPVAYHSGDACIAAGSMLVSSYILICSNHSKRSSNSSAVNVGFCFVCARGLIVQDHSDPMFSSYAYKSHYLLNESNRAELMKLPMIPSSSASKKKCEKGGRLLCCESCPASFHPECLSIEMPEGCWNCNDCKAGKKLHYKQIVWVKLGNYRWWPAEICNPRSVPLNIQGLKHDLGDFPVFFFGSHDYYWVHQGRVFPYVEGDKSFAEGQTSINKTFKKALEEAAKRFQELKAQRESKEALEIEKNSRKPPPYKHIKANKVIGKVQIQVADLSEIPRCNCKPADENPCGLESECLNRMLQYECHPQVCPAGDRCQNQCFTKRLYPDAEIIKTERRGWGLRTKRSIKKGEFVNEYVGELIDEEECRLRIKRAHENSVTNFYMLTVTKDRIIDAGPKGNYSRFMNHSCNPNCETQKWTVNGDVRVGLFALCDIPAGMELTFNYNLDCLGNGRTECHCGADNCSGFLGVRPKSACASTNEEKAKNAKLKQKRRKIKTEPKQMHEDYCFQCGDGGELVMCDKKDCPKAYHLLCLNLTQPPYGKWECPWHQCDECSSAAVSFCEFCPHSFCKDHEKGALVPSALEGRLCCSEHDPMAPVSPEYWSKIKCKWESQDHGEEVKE
The experiment can be described thus: Selectivity interaction (PWWP, WD40, and Tudor domain panel (DSLS measurements, literature)) EUB0000270b NSD3.

Experiment [4] concerns the target Tyrosine-protein kinase Lck (Homo sapiens, UniProt P06239). Briefly: Selectivity interaction (KinomeScan (DiscoverX)) EUB0000229b LCK. The following applies: at 10 µM.
For experiment [5], the target named is Ribosomal protein S6 kinase beta-1 (Homo sapiens, UniProt P23443). Briefly: Selectivity interaction (ActivX KiNativ screen (ex vivo kinase selectivity in human PBMCs)) EUB0001619a RPS6KB1. The experiment is classed as cell-based. As to conditions: PBMC, at 1 µM.
Experiment [6] deals with Myosin light chain kinase, smooth muscle (Homo sapiens, UniProt Q15746). Briefly: Selectivity interaction (Kinase panel (literature)) EUB0001199aCl MYLK. As to conditions: at 1 µM.
Experiment [7] addresses Tyrosine-protein kinase Blk (Homo sapiens) (UniProt P51451). Briefly: Selectivity interaction (KinomeScan (DiscoverX)) EUB0000618a BLK. The following applies: at 10 µM.

Tyrosine-protein kinase Lck, sequence (P06239 2-509 limits assumed): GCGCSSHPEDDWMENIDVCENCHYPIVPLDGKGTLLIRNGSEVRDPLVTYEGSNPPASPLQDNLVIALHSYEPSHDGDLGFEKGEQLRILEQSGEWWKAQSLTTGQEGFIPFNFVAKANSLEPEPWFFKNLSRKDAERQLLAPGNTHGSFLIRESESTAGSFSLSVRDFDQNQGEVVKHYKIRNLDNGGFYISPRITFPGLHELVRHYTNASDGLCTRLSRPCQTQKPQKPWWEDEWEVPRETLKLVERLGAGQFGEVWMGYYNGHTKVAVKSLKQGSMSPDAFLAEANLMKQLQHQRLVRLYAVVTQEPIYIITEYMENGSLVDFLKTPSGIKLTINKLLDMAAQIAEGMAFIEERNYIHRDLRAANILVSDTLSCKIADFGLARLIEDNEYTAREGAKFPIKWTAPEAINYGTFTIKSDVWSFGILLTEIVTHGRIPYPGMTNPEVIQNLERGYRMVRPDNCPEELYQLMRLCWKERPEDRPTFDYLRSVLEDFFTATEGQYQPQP
Tyrosine-protein kinase Blk (Homo sapiens), sequence (P51451 2-505 limits assumed): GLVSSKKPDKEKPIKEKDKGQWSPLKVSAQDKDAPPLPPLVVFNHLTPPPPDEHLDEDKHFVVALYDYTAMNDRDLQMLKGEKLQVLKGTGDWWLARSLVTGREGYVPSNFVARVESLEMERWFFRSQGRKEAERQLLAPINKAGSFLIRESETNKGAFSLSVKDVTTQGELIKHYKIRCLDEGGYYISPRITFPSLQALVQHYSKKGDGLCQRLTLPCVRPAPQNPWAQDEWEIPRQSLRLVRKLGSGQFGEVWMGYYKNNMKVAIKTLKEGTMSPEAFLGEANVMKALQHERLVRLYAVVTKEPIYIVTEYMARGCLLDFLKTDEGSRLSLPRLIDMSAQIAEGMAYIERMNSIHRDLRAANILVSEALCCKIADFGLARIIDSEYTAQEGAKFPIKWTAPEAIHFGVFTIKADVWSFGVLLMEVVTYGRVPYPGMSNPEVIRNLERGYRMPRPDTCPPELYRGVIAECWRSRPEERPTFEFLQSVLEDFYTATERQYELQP
Myosin light chain kinase, smooth muscle, sequence (Q15746 whole entry): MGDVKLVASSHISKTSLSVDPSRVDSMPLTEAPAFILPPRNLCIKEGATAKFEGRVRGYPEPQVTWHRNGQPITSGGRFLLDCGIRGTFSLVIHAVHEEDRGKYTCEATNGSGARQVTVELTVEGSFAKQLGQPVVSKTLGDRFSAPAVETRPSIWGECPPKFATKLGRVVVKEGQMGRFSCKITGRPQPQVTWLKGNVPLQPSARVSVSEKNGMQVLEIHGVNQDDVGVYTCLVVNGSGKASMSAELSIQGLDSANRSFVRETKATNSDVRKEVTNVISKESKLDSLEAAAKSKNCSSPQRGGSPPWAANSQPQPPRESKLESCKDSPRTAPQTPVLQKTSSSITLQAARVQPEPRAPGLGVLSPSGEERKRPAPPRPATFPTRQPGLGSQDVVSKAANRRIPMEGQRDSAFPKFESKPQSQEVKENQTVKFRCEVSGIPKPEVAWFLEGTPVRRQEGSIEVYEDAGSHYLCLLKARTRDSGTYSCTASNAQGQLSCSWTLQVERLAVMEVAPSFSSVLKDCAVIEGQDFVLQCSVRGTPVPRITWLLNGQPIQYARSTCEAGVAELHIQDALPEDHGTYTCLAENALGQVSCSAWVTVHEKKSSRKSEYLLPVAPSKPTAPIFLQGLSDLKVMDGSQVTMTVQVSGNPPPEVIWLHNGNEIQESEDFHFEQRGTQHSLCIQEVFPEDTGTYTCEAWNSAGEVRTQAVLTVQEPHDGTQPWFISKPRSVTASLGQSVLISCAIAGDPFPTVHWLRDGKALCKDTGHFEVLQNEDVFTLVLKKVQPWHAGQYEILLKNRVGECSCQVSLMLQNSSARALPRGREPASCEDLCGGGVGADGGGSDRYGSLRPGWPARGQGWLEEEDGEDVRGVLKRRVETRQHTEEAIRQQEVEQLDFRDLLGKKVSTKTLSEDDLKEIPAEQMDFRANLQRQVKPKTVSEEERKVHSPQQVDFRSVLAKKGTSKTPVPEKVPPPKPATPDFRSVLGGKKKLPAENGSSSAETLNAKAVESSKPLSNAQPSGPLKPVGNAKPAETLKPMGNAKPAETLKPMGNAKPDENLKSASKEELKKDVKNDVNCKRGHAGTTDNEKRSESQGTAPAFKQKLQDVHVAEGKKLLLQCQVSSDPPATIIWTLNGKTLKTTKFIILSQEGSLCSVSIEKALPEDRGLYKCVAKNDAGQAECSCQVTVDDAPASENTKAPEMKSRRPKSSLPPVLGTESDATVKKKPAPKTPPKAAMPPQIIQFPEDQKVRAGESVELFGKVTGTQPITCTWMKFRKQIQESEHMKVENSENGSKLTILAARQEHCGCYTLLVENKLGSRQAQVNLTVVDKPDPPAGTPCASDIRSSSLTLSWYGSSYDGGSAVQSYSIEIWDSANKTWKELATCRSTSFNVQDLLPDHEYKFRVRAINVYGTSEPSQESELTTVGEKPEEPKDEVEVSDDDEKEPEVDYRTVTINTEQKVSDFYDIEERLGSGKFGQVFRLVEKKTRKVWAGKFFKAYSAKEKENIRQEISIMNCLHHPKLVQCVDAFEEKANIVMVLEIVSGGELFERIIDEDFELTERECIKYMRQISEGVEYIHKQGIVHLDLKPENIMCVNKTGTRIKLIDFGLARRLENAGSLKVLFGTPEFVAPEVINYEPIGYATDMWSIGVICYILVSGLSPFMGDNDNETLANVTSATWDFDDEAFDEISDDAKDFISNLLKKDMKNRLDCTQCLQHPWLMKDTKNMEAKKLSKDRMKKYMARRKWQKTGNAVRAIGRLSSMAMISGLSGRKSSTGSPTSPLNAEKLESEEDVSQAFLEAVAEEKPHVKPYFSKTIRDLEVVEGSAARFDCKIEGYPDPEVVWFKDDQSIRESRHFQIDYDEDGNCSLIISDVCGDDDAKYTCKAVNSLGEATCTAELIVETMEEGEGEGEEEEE
Voltage-dependent L-type calcium channel subunit alpha-1S (Homo sapiens), sequence (Q13698 whole entry): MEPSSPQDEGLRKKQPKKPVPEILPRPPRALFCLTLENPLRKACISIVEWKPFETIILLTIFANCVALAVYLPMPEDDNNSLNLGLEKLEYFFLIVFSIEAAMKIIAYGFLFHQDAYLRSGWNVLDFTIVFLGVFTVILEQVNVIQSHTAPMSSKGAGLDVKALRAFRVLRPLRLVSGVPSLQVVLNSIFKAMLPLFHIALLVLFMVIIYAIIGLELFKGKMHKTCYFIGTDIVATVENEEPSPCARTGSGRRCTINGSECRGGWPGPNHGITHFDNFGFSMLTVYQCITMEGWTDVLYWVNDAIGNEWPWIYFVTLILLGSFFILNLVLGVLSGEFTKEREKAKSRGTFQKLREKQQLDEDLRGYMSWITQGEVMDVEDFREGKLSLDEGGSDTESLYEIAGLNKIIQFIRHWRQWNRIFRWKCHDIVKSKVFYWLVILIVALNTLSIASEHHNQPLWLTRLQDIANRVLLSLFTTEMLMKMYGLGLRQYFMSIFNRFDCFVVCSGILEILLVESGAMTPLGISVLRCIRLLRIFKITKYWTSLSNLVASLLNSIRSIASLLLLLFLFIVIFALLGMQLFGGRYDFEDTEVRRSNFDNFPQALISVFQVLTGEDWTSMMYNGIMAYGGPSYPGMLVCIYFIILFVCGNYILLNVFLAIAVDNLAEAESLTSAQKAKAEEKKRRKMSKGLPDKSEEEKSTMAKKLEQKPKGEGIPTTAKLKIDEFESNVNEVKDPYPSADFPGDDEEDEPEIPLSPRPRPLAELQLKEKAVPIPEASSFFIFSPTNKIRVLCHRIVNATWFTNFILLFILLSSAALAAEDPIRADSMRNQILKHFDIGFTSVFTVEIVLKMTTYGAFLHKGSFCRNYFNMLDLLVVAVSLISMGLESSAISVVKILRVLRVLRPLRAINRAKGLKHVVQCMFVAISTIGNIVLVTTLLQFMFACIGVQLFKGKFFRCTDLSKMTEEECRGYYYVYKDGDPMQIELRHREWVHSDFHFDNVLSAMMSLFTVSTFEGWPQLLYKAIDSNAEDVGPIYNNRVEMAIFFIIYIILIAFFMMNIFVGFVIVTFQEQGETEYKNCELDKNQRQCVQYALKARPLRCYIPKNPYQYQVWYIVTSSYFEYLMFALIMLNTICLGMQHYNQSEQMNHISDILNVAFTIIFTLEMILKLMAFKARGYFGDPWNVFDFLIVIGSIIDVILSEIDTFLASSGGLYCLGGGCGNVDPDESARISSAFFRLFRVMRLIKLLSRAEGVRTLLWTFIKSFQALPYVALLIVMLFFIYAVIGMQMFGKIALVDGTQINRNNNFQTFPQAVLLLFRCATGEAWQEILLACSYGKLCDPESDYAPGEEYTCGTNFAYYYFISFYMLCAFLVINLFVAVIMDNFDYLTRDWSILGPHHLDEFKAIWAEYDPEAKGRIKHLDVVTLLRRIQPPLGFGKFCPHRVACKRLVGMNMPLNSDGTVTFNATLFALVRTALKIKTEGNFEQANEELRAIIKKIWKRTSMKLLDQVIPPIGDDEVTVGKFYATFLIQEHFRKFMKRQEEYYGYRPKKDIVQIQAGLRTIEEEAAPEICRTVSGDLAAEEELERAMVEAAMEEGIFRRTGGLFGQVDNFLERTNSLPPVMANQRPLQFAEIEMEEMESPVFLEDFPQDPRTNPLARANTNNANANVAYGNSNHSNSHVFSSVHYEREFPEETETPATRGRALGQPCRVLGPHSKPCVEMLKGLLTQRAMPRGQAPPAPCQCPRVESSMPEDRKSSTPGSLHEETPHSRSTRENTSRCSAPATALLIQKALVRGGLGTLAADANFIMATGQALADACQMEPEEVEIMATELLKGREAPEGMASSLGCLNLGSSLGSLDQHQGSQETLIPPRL

Consider `Nc1cnc(N2CCc3cc(S(=O)(=O)Nc4c(F)cc(Cl)cc4F)cc(N4CCCC4=O)c32)nc1` [TP-020n], for which the % of control in experiment [1] stood at 96%. Turning to `CC(=O)c1cc(-c2ccccc2OCC2CC2)c2ncccn12`, in experiment [2], the % of control was 89%. `Cc1cc(CN)cc(C)c1-c1ncn(C)c1-c1cncn1C` displayed a dTagg in experiment [3] of 0.7 K.

`COc1cc(N(C)c2ccnc3ccc(C(F)(F)F)cc23)cc(OC)c1OC` displayed a % binding in experiment [4] of 80%. As to `N#Cc1cccc(-c2c[nH]c3ncnc(N4CCOCC4)c23)c1`, the % of inhibition in experiment [5] is -10%. For the molecule `CN1Cc2nccc(-c3cn(C)nc3-c3ccc(F)cc3)c2C1=O`, the % of inhibition in experiment [6] is 4%. In experiment [7], `O[C@H]1CC[C@H](Nc2ncc3nc(Nc4c(F)cc(F)cc4F)n([C@H]4CCOC4)c3n2)CC1` yielded a % of control of 98%.
